Measurements as given in ChEMBL document CHEMBL1147612, “Synthesis, topoisomerase I inhibition and structure-activity relationship study of 2,4,6-trisubstituted pyridine derivatives” (Bioorg Med Chem Lett, 2004).

Assays:
Assay type in all cases: functional, cell-based
SK-MEL-2 = experiment: Antitumor cytotoxicity was determined against the SK-MEL-2 (human malignant melanoma) cell line; Range: 0.01 to 0.03
HCT-15 = experiment: Antitumor cytotoxicity was determined against the HCT-15 (human colon adenocarcinoma) cell line; Range: 0.01 to 0.03
A549 = experiment: Antitumor cytotoxicity was determined against the A-549(human lung carcinoma) cell line; Range: 0.01 to 0.03
SK-OV-3 = experiment: Antitumor cytotoxicity was determined against the SK-OV-3 (human ovary adenocarcinoma) cell line; Range: 0.01 to 0.03; settings: SK-OV-3, Female gonad

Measured: EC50

c1ccc(-c2cc(-c3ccccn3)nc(-c3ccccn3)c2)nc1
30 nM: all assays above
